Experimental data taken from patent US20180267043A1, “USE OF BIOMARKERS FOR PREDICTING CLINICAL SENSITIVITY TO CANCER TREATMENT” (CELGENE CORPORATION, priority 2014, published 2018).

What was measured:
U937 = assay: CellTiter-Glo cell viability assay, U937; format: cell-based, human; settings: 48 hours
Procedure: The effect of overexpression of GSPT1 on the anti-proliferative effect of Compound C was determined in human histiocytic lymphoma cell line U937 and human leukemia cell line Molm13. Treatment compounds were titrated from 0.1 nM to 1 μM. Cell proliferation was measured by CellTiter-Glo cell viability assay at 48 hours after treatment.

[1] = tested on: GSPT1/eRF3a, GSPT2/eRF3b, and HBS1L/eRF3c; assay: Immunoblotting of CRBN/Compound C substrates in 293 HEK cells; format: cell-based, human; settings: 8 hours
Procedure: Immunblotting analysis was performed to confirm GSPT1/eRF3a, GSPT2/eRF3b, and HBS1L/eRF3c as authentic substrates of the CRBN/Compound C complex. 293 HEK cells transiently transfected with HA-tagged HBS1L or FLAG-tagged GSPT2 were treated with Compound at the indicated concentrations for 8 hours.

FLAG-HA tagged CRBN = target: T1, FLAG-HA tagged CRBN (Homo sapiens, UniProt Q96SW2); assay: Anti-FLAG immunoprecipitation of FLAG-HA CRBN from 293 HEK lysate, mass spectrometry; format: binding; settings: 1 μM, whole cell lysate of 293 HEK cells, vs DMSO
T1 construct: HA; expressed in transfected cells
T1 sequence (Q96SW2 whole entry): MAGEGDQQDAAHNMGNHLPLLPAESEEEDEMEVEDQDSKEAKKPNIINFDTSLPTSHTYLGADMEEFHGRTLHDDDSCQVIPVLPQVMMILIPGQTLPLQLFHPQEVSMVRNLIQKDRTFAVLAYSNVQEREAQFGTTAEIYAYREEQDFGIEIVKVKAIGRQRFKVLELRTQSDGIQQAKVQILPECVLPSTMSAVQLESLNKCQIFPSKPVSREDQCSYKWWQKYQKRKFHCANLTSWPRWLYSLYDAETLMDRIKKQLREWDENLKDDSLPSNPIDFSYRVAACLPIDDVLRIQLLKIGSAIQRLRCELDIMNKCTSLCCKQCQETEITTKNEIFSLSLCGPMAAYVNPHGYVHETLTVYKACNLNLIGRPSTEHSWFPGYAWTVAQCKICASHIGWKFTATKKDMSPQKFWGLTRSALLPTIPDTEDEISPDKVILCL
Procedure: Whole cell lysate of 293 HEK cells stably expressing FLAG-HA tagged CRBN was treated with 1 μM Compound C or DMSO vehicle control. Proteins associated with FLAG-HA CRBN were immunoprecipitated with anti-FLAG affinity gel, separated on SDS-PAGE, silver-stained, and analyzed by mass spectrometry. […] Arrows point to the expected positions of DDB1, GSPT1, PABP1, and CRBN.

XBP1 and ATF6 pathways [2] = assay: RNA level of XBP1 and ATF6 pathway components in DF15 MM cells; format: cell-based, human; settings: DF15, 20 nM, 5, 10, or 23 hours
Procedure: The mechanism of Compound C-activated XBP1 and ATF6 pathways was studied in DF15 MM cells. Cells were treated with DMSO or 20 nM Compound C for 5, 10, or 23 hours. The RNA level of variant cellular components along the XBP1 and ATF6 pathways was measured and normalized with GAPDH.

XBP1 and ATF6 pathways [3] = assay: RNA level of XBP1 and ATF6 pathway components in 293FT HEK cells; format: cell-based, human; settings: 1 nM or 10 nM, 24 hours
Procedure: The mechanism of Compound C-activated XBP1 and ATF6 pathways was studied in 293FT HEK cells. Parental cells, CRBN−/− cells, cells expressing control shRNA, or cells expressing GSPT1-specific shRNA were treated with DMSO, 1 nM, or 10 nM Compound C. The RNA level of variant cellular components along the XBP1 and ATF6 pathways was measured and normalized with GAPDH at 24 hours after treatment.

RPMI-8226 = assay: CellTiter-Glo cell viability assay after GSPT1 knockdown, RPMI-8226; format: cell-based, human; settings: RPMI-8226 expressing shGSPT1-1 or shGSPT1-3 vs parental or control shRNA, 0.01 nM to 0.1 μM, day 9
Procedure: The effect of depletion of GSPT1 on the anti-proliferative effect of Compound C was determined in human multiple myeloma (MM) cell lines DF15 and RPMI-8226. Treatment compounds were titrated from 0.01 nM to 0.1 μM. Cell proliferation was measured by the CellTiter-Glo cell viability assay (RLU-Relative Luminescent Unit) at day 9 after GSPT1 knockdown by shGSPT1-1 or shGSPT1-3.

PERK/EIF2a/ATF4 pathway = assay: mRNA level of PERK/EIF2a/ATF4 pathway components in KG1 cells; format: cell-based, human; settings: KG1 cells (FIG. 18C)
HEK 293FT cells = assay: CellTiter-Glo cell viability assay, HEK 293FT cells with GSPT1 shRNA; format: cell-based, human
Procedure: The effect of depletion of GSPT1 on Compound C-induced anti-proliferation was examined in HEK 293FT cells. Cells were infected with either expression vector alone, or vector containing control shRNA or GSPT1-specific shRNA. The cells were then treated with Compound C at different concentrations. Cell proliferation was measured by the CellTiter-Glo cell viability assay (RLU-Relative Luminescent Unit).

[4] = tested on: CRBN and its substrates IKZF1, GSPT1, GSPT2; assay: In vitro binding assay, anti-HA immunoprecipitation and immunoblotting; settings: cell lysates
Procedure: CRBN−/− cells expressing HA-tagged substrates were lysed and incubated with anti-HA antibody to pull down substrates. CRBN positive cells expressing shGSPT1 that specifically knocks down GSPT1 were lysed, then mixed with the substrates obtained from CRBN−/− cells. The mixture was incubated with DMSO alone or compounds. Immunoprecipitation using anti-HA antibody was performed. Then, immunoblotting was performed using anti-CRBN or anti-HA antibodies.

[5] = tested on: Human Acute Myeloblastic Leukemia Cell Line KG1; assay: Anti-proliferative effect after GSPT1 knockdown, KG1 (FIG. 12A); format: cell-based
[6] = tested on: KG1, DF15, AML3, and 293FT; assay: Sensitivity to compound-induced ER stress and apoptosis, KG1, DF15, AML3, 293FT; format: cell-based, human
Procedure: The GSPT1 dependency was shown by GSPT1-specific shRNA knockdown experiment. The GSPT1 degradation efficiency was shown by Western Blot. The induction of ATF3 or DDIT3 was measured by quantitative RT-PCR. […] Time needed for Compound C-induced ER stress or Compound C-induced apoptosis was summarized. […] High ER demand may contribute to the sensitivity of certain cancer cells to the treatment of Compound C.

[7] = tested on: Acute Myelogenous Leukemia (AML3) cell line; assay: CellTiter-Glo cell viability assay after GSPT1 knockdown, AML3; format: cell-based, human
Procedure: The effect of depletion of GSPT1 on the anti-proliferative effect of Compound C was determined in human Acute Myelogenous Leukemia (AML3) cell line. Cells were infected with lentiviral vectors expressing control shRNA, shGSPT1-1 or shGSPT1-3 for 7 days and then treated with DMSO, Compound C in a titration from 0.0001 μM to 1 μM. Two days after treatment, cell proliferation was measured by CellTiter-Glo cell viability assay.

[8] = 293FT parental and control shRNA cells

In the case of Cc1ccc(NC(=O)NCc2ccc3c(c2)CN(C2CCC(=O)NC2=O)C3=O)cc1Cl (stereo not drawn) [Compound C, 1-(3-chloro-4-methylphenyl)-3-((2-(2,6-dioxopiperidin-3-yl)-1-oxoisoindolin-5-yl)methyl)urea], the Anti-proliferative effect (U937; U937, exogenous GSPT1 overproduced via EF1a promoter) is reported as “the anti-proliferative effect of Compound C reduces”, the Anti-proliferative effect (U937; U937 CRBN −/− cells) is reported as “completely abolished” and the Cell proliferation (U937; U937 parental cells, 0.1 nM to 1 μM) is reported as “inhibits cell proliferation”. For the same compound, the “Binding partners of CRBN induced by compound binding” value [1] was “GSPT1/eRF3a, GSPT2/eRF3b, and HBS1L/eRF3c are binding partners of CRBN induced by Compound C binding”, the “Degradation of GSPT1/eRF3a, GSPT2/eRF3b, and HBS1L/eRF3c” value ([1]; increased concentration) was “induces degradation” and the “Proteins associated with FLAG-HA CRBN identified as CAPs” value (FLAG-HA tagged CRBN) was “PABP1, GSPT1/eRF3a, GSPT2/eRF3b, and HBS1L/eRF3c were identified as CAPs only when CRBN was bound with Compound C”. For the same compound, the “RNA level of ATF6 pathway components (XBP1, EDEM1, HYOU1, HSPA5)” value (XBP1 and ATF6 pathways [2]) was “induces expression”, the “RNA level of XBP1 pathway components (SEC24D, DNAJB9, XBP1, EDEM1, HYOU1)” value (XBP1 and ATF6 pathways [2]) was “induces expression” and the “RNA level of ATF6 pathway components (XBP1, EDEM1, EDEM2, HYOU1, HSPA5)” value (XBP1 and ATF6 pathways [3]; [8]) was “induces expression”. For the same compound, the “RNA level of XBP1 pathway components (SEC24D, DNAJB9, DNAJC6, XBP1, EDEM1, EDEM2, HYOU1)” value (XBP1 and ATF6 pathways [3]; [8]) was “induces expression”, the “RNA level of XBP1 and ATF6 pathway components” value (XBP1 and ATF6 pathways [3]; cells with GSPT1 knockdown) was “This induction effect increases” and the Anti-proliferative effect (RPMI-8226) was “increased anti-proliferative effect”. For the same compound, the “mRNA level of ATF4, ATF3, DDIT3, PPP1R15A, GADD45A, TNFRSF1B, and TNFRSF10B” value (PERK/EIF2a/ATF4 pathway) was “Compound C-induced expression of ATF4, ATF3, DDIT3, PPP1R15A, GADD45A, TNFRSF1B, and TNFRSF10B”, the Cell proliferation (HEK 293FT cells; CRBN+/+ parental cells, expression vector alone, or control shRNA) was “show sensitivity to Compound C-induced anti-proliferation” and the Cell proliferation (HEK 293FT cells; CRBN−/− cells) was “cannot inhibit cell proliferation”. For the same compound, the Cell proliferation (HEK 293FT cells; GSPT1-specific shRNA knockdown) was “growth inhibition starting at even lower concentration of compound treatment”, the “Interaction between CRBN and GSPT1 or GSPT2” value [4] was “promotes the interaction” and the “Interaction between CRBN and IKZF1” value [4] was “promotes the interaction”. The Anti-proliferative effect ([5]; KG1 (FIG. 12A)) was “exhibited anti-proliferative effect”, the Anti-proliferative effect ([5]; KG1, GSPT1 downregulated by shGSPT1-1 or shGSPT1-3) was “the anti-proliferative effect increased” and the “Sensitivity to the compound” value ([6]; KG1, DF15, AML3, and 293FT) was “exhibit different levels of sensitivity to Compound C”. The “Order in time of compound-induced ER stress and apoptosis” value ([6]; cancer cell lines of FIG. 21) was “Compound C-induced ER stress precedes Compound C-induced apoptosis”, the Anti-proliferative effect ([7]; AML3 (FIG. 12A)) was “exhibited anti-proliferative effect” and the Anti-proliferative effect ([7]; AML3 expressing shGSPT1-1 or shGSPT1-3 vs parental or control shRNA, 0.0001 μM to 1 μM, two days) was “increased anti-proliferative effect”.
